Data reported in patent publication US20100216255A1, “METHODS OF DETERMINING ACTIVE LEVELS OF DRUGS IN FLUID SAMPLES” (CLINICAL REFERENCE LABORATORY, priority 2001, published 2010).

Molecular target: T1, Beta-1-adrenergic receptor (Homo sapiens, UniProt P08588)
T1 construct: purchased Sigma Chemical RBIB-143
Assay: Cell receptor assay, competition with radiolabeled 125-iodocyanopindolol
Type: binding
Details: cut-off control, 20 ug/ml Atenolol in drug negative urine, diluted 1 to 10 before assay; 2 h at room temperature; counts inversely related to unlabeled ligand
Protocol: This example provides a cell receptor assay for B1 adrenergic receptors and tests the accuracy of the assay. Patient urine that may or may not contain target ligand and a radiolabeled competitive ligand are added to a test tube containing a limited concentration of cell membrane containing beta-1-adrenergic receptors. The unlabeled ligand in the patient's urine competes with the labeled ligand for the receptor sites during an incubation period. Following incubation the tubes are centrifuged to precipitate the cell membrane-receptors. The solution containing unbound ligand is decanted and the radioactivity retained in the tubes is detected in a gamma counter. The amount of radioactivity bound is indirectly proportional to the concentration of unlabeled ligand present in the patient's urine. […] Adjust the pH to 7.4 with concentrated hydrochloric acid and fill to volume with deionized water. […] Thaw the stock solution of membrane and dilute to 30 milliliter with Tris working buffer. […] The working solution of radiolabel is prepared by diluting the stock 1 to 30 with Tris working buffer. […] Atenolol, propranolol and metoprolol were diluted with HPLC grade ethyl alcohol (Aldrich Chemical Company Milwaukee, Wis.) to produce a 1.0 mg/ml stock solution for each drug. […] The total radioactivity was detected on Packard Cobra II Auto Gamma counter (Packard Instrument Company Downers Grove, Ill.).

T1 sequence (P08588 whole entry, species assumed): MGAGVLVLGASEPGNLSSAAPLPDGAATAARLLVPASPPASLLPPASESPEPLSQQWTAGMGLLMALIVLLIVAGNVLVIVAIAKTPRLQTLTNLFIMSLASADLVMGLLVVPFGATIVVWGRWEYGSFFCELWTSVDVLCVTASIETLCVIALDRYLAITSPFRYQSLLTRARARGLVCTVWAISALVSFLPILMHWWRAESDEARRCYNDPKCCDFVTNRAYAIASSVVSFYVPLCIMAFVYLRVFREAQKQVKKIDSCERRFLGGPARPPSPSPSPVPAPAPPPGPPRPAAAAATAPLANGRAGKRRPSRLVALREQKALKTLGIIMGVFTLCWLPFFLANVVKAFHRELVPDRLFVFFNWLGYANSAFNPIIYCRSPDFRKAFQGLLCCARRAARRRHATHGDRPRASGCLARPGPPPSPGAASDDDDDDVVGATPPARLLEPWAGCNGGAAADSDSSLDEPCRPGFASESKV

Counts per Minute	SMILES
5117	CC(C)NCC(O)COc1ccc(CC(N)=O)cc1 (stereo not shown) [Atenolol]

Molecular target: Angiotensin Converting Enzyme (ACE) (Homo sapiens, UniProt P12821)
Sequence (P12821 30-1232 limits assumed): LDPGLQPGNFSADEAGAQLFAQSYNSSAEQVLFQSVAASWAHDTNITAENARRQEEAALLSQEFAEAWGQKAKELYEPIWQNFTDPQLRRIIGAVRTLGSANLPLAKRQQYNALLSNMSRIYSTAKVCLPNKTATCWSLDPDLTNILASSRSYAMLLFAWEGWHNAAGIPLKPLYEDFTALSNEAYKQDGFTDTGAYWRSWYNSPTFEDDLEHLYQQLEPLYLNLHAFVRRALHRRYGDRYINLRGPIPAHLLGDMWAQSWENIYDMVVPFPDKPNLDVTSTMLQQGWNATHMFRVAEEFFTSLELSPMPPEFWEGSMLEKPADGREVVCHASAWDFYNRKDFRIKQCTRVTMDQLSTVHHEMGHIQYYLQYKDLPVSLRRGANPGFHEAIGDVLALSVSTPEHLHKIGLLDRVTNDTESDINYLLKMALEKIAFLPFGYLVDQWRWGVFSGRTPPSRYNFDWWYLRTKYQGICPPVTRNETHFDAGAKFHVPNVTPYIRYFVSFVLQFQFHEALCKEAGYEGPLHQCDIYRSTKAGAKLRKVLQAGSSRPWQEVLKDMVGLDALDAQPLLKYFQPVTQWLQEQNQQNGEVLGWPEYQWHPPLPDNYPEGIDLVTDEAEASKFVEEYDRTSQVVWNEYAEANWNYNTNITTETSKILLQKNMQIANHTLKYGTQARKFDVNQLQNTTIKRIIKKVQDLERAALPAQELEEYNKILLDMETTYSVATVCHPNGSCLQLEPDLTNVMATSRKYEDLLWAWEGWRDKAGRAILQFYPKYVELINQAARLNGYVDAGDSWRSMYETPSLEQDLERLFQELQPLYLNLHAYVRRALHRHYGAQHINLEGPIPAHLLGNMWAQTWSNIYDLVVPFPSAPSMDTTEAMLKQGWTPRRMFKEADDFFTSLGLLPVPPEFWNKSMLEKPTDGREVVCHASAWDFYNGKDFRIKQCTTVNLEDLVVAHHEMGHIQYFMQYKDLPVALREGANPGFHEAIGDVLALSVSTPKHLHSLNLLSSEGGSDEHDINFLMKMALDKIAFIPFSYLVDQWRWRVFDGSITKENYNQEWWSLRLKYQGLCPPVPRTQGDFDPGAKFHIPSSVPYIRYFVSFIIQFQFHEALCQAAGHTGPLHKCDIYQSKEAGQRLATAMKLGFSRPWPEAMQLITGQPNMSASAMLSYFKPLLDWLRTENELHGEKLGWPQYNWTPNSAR
Assay: ACE enzyme inhibition assay on samples from individuals reporting an ACE-inhibiting drug
Details: urine samples from individuals self-reporting the drug; count out of the LISTED number
Protocol: The bottle was then inverted a few times and then put on a shaker (Clay Adams CA6000 Centrifuge Becton Dickinson Microbiology System Sparks, Md.) at speed setting 2 for ten minutes. […] The pH was adjusted to 8.2 with 6 N hydrochloric acid.
Using the above-described reagents, a Hamilton MicroLab AT pipetting station was used to transfer 100 μl of the ACE serum in Tris buffer to each well of a microtiter plate. Next, 25 μl of the cut-off level calibrator, controls and unknown were added to their corresponding well locations with the Hamilton MicroLab AT, as shown in Table 1.
Five different patient samples were then added to five other wells. The microtiter plate was shaker on Titer Plate Shaker (Lab Line Instruments, Inc. Melrose, Ill.) at a setting of 2 for at least five minutes before pipetting 100 μl of the substrate FAPGG into each well. Next, solution was mixed by shaking the microtiter plate on the shaker at a speed setting of 2 for one minute. The microtiter plate was placed in the Spectra Mac Plus (Molecular Devices, Sunnyvale, Calif.) plate reader and the optical density of each sample at 340 nanoMeter was determined. The microtiter plate was then incubated at 37° C. for two hours. The optical density was again determined on the plate reader. This two-hour reading of optical density was then subtracted from the initial reading of optical density and termed the “delta OD 340.”
Fluid samples were obtained from individuals reporting that they were currently taking an ACE-inhibiting drug. […] The medications reported by the patients included eight different medications of the ACE-inhibiting drug family. Each individual reported taking only one specific ACE-inhibiting drug. Thus, this example tests the ability of the assay to identify individuals on ACE-inhibiting drugs without prior knowledge of the specific drug being taken.

DETECTED (samples testing positive for ACE-inhibiting drugs)	SMILES
14	CCOC(=O)[C@H](CCc1ccccc1)N[C@H]1CCc2ccccc2N(CC(=O)O)C1=O [BENAZEPRIL, benazepril]
15	CCOC(=O)[C@H](CCc1ccccc1)N[C@@H](C)C(=O)N1Cc2ccccc2C[C@H]1C(=O)O [QUINAPRIL, quinapril]
5	CCOC(=O)[C@H](CCc1ccccc1)N[C@@H](C)C(=O)N1CCC[C@H]1C(=O)O [ENALAPRIL, enalapril]
2	CCOC(=O)[C@H](CCc1ccccc1)N[C@@H](C)C(=O)N1[C@H](C(=O)O)C[C@@H]2CCC[C@@H]21 [RAMIPRIL, ramipril]
22	NCCCC[C@H](N[C@@H](CCc1ccccc1)C(=O)O)C(=O)N1CCC[C@H]1C(=O)O [LISINOPRIL, lisinopril]
3	CCOC(=O)[C@H](CCc1ccccc1)N[C@@H](C)C(=O)N1Cc2cc(OC)c(OC)cc2C[C@H]1C(=O)O [MOEXIPRIL, moexipril]
